In US9273041B2, “Compounds for the treatment of dyslipidemia and related diseases” (Cadila Healthcare Limited, priority 2012, dated 2016):

Biological target: PCSK9 (Homo sapiens, UniProt Q8NBP7)
Assay: PCSK9-LDLR in vitro binding assay (solid phase, ELISA readout)
Conditions: read-out: % Inhibition PCSK 9; for inhibition at 10 µM: test compound concentration 10 μM; for inhibition at 100 µM: test compound concentration 100 μM; for inhibition at 1 µM: test compound concentration 1 μM
Experimental: The PCSK9-LDLR in vitro binding Assay is a quantitative solid phase binding assay between PCSK9 and recombinant LDLR. Plates were pre-coated with a recombinant LDLR-AB domain, which binds PCSK9. Test compound at different concentration was added to the PCSK9 and added to LDLR immobilized on the wells. The amount of bound PCSK9 is measured by binding it with biotinylated anti-His-tag monoclonal antibody, followed by binding with horseradish peroxidase conjugated streptavidin substrate. The color was quantified by ELISA reader at […] which reflects the relative amount of PCSK9 that binds to LDLR in presence and absence of the inhibitor. EC50 values were calculated by nonlinear regression analysis using graph pad prism software. Each concentration point represents values in duplicates.

PCSK9, sequence (Q8NBP7 153-692): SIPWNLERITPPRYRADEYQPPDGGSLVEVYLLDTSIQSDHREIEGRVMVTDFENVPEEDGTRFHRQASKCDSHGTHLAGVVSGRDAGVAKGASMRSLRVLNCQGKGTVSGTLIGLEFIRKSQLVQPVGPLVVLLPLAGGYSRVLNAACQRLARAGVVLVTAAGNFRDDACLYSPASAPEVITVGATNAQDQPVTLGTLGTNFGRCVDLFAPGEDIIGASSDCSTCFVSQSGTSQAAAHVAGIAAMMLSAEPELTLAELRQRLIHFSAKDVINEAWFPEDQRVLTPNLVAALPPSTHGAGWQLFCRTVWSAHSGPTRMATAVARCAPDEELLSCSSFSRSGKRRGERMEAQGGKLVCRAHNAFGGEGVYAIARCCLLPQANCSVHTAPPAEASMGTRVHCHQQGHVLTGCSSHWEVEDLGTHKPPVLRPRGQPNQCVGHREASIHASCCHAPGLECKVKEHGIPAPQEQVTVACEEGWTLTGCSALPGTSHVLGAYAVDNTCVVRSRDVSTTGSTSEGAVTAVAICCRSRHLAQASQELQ
PCSK9, sequence (Q8NBP7 31-152 partner limits assumed): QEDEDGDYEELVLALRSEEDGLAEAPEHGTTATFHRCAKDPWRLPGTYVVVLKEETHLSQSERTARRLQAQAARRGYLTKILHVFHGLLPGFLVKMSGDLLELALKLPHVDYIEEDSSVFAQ

Row | Structure (SMILES) | inhibition at 10 µM [%] | inhibition at 100 µM [%] | inhibition at 1 µM [%]
1 | Cc1c(-c2ccc(OCC(=O)NCC3CCOCC3)cc2)noc1-c1ccccc1 [Example 1, 2-(4-(4-Methyl-5-phenylisoxazol-3-yl)phenoxy)-N-((tetrahydro-2H-pyran-4-yl)methyl)acetamide] | 42 | 68 | –
2 | Cc1onc(-c2ccc(OCC(=O)NCC3CCOCC3)cc2)c1-c1ccccc1 [Example 2, 2-(4-(5-methyl-4-phenylisoxazol-3-yl)phenoxy)-N-((tetrahydro-2H-pyran-4-yl)methyl)acetamide] | 9 | 33 | –
3 | Cc1c(-c2ccc(OCC(=O)NCC3CCOCC3)cc2)noc1-c1ccc(F)cc1 [Example 3, 2-(4-(5-(4-fluorophenyl)-4-methylisoxazol-3-yl)phenoxy)-N-((tetrahydro-2H-pyran-4-yl)methyl)acetamide] | 35 | 65 | 33
4 | Cc1c(-c2ccc(OCC(=O)NCC3CCOCC3)cc2)noc1-c1ccc(Cl)cc1 [Example 4, 2-(4-(5-(4-chlorophenyl)-4-methylisoxazol-3-yl)phenoxy)-N-((tetrahydro-2H-pyran-4-yl)methyl)acetamide] | 36 | 29 | –
5 | Cc1c(-c2ccc(OCC(=O)NCC3CCOCC3)cc2)noc1-c1ccc(C(F)(F)F)cc1 [Example 5, 2-(4-(4-methyl-5-(4-(trifluoromethyl)phenyl)isoxazol-3-yl)phenoxy)-N-((tetrahydro-2H-pyran-4-yl)methyl)acetamide] | 67 | 71 | 49
6 | Cc1ccc(-c2onc(-c3ccc(OCC(=O)NCC4CCOCC4)cc3)c2C)cc1 [Example 6, 2-(4-(4-methyl-5-(p-tolyl)isoxazol-3-yl)phenoxy)-N-((tetrahydro-2H-pyran-4-yl)methyl)acetamide] | 17 | 34 | 12
7 | Cc1c(-c2ccc(OCC(=O)NCC3CCOCC3)cc2)nsc1-c1ccccc1 [Example 7, 2-(4-(4-methyl-5-phenylisothiazol-3-yl)phenoxy)-N-((tetrahydro-2H-pyran-4-yl)methyl)acetamide] | 22 | 55 | 22
8 | COc1cc(-c2ccc(OCC(=O)NCC3CCOCC3)cc2)nn1-c1ccc(C(F)(F)F)cc1 [Example 8, 2-(4-(5-methoxy-1-(4-(trifluoromethyl)phenyl)-1H-pyrazol-3-yl)phenoxy)-N-((tetrahydro-2H-pyran-4-yl)methyl)acetamide] | 73 | 58 | –
9 | COc1cc(-c2ccc(OCC(=O)NCC3CCOCC3)cc2)nn1-c1ccc(F)cc1 [Example 9, 2-(4-(1-(4-fluorophenyl)-5-methoxy-1H-pyrazol-3-yl)phenoxy)-N-((tetrahydro-2H-pyran-4-yl)methyl)acetamide] | 41 | 64 | 37
10 | COc1cc(-c2ccc(OCC(=O)NCC3CCOCC3)cc2)nn1-c1ccccc1 [Example 10, 2-(4-(5-methoxy-1-phenyl-1H-pyrazol-3-yl)phenoxy)-N-((tetrahydro-2H-pyran-4-yl)methyl)acetamide] | 40 | 56 | 33
11 | Cc1nc(-c2ccccc2)sc1-c1ccc(OCC(=O)NCC2CCOCC2)cc1 [Example 11, 2-(4-(4-methyl-2-phenylthiazol-5-yl)phenoxy)-N-((tetrahydro-2H-pyran-4-yl)methyl)acetamide] | 44 | 53 | 30
12 | Cc1nc(-c2ccc(C(F)(F)F)cc2)sc1-c1ccc(OCC(=O)NCC2CCOCC2)cc1 [Example 12, 2-(4-(4-methyl-2-(4-(trifluoromethyl)phenyl)thiazol-5-yl)phenoxy)-N-((tetrahydro-2H-pyran-4-yl)methyl)acetamide] | 33 | 36 | –
13 | Cc1nc(-c2ccc(F)cc2)sc1-c1ccc(OCC(=O)NCC2CCOCC2)cc1 [Example 13, 2-(4-(2-(4-fluorophenyl)-4-methylthiazol-5-yl)phenoxy)-N-((tetrahydro-2H-pyran-4-yl)methyl)acetamide] | 30 | 78 | 17
14 | Cc1oc(-c2ccccc2)nc1-c1ccc(OCC(=O)NCC2CCOCC2)cc1 [Example 17, 2-(4-(5-methyl-2-phenyloxazol-4-yl)phenoxy)-N-((tetrahydro-2H-pyran-4-yl)methyl)acetamide] | 38 | 63 | 40
15 | Cc1oc(-c2ccc(C(F)(F)F)cc2)nc1-c1ccc(OCC(=O)NCC2CCOCC2)cc1 [Example 18, 2-(4-(5-methyl-2-(4-(trifluoromethyl)phenyl)oxazol-4-yl)phenoxy)-N-((tetrahydro-2H-pyran-4-yl)methyl)acetamide] | 53 | – | –
16 | Cc1oc(-c2ccc(F)cc2)nc1-c1ccc(OCC(=O)NCC2CCOCC2)cc1 [Example 19, 2-(4-(2-(4-fluorophenyl)-5-methyloxazol-4-yl)phenoxy)-N-((tetrahydro-2H-pyran-4-yl)methyl)acetamide] | 24 | 50 | –
17 | Cc1ccc(-c2nc(-c3ccc(OCC(=O)NCC4CCOCC4)cc3)c(C)o2)cc1 [Example 22, 2-(4-(5-methyl-2-(p-tolyl)oxazol-4-yl)phenoxy)-N-((tetrahydro-2H-pyran-4-yl)methyl)acetamide] | 30 | 54 | 27
18 | Cc1oc(-c2cccnc2)nc1-c1ccc(OCC(=O)NCC2CCOCC2)cc1 [Example 24, 2-(4-(5-methyl-2-(pyridin-3-yl)oxazol-4-yl)phenoxy)-N-((tetrahydro-2H-pyran-4-yl)methyl)acetamide] | 76 | 35 | 49
19 | O=C(COc1ccc(-c2noc(-c3ccc(C(F)(F)F)cc3)n2)cc1)NCC1CCOCC1 [Example 25, N-((tetrahydro-2H-pyran-4-yl)methyl)-2-(4-(5-(4-(trifluoromethyl)phenyl)-1,2,4-oxadiazol-3-yl)phenoxy)acetamide] | 50 | 64 | 37
20 | O=C(COc1ccc(-c2nnc(-c3ccc(F)cc3)o2)cc1)NCC1CCOCC1 [Example 30, 2-(4-(5-(4-fluorophenyl)-1,3,4-oxadiazol-2-yl)phenoxy)-N-((tetrahydro-2H-pyran-4-yl)methyl)acetamide] | 20 | 32 | 19
21 | O=C(COc1ccc(-c2nnc(-c3ccc(C(F)(F)F)cc3)o2)cc1)NCC1CCOCC1 [Example 31, N-((tetrahydro-2H-pyran-4-yl)methyl)-2-(4-(5-(4-(trifluoromethyl)phenyl)-1,3,4-oxadiazol-2-yl)phenoxy)acetamide] | 34 | 36 | 25
22 | COc1ccc(-c2nnc(-c3ccc(OCC(=O)NCC4CCOCC4)cc3)o2)cc1 [Example 32, 2-(4-(5-(4-methoxyphenyl)-1,3,4-oxadiazol-2-yl)phenoxy)-N-((tetrahydro-2H-pyran-4-yl)methyl)acetamide] | 23 | 30 | 13
23 | O=C(COc1ccc(C2CN(c3ccc(F)cc3)C(=O)O2)cc1)NCC1CCOCC1 (stereo not drawn) [Example 35, 2-(4-(3-(4-fluorophenyl)-2-oxooxazolidin-5-yl)phenoxy)-N-((tetrahydro-2H-pyran-4-yl)methyl)acetamide] | 54 | 61 | 14
24 | COc1ccc(N2CC(c3ccc(OCC(=O)NCC4CCOCC4)cc3)OC2=O)cc1 (stereo not drawn) [Example 36, 2-(4-(3-(4-methoxyphenyl)-2-oxooxazolidin-5-yl)phenoxy)-N-((tetrahydro-2H-pyran-4-yl)methyl)acetamide] | 24 | 61 | 47
25 | O=C(COc1ccc(-n2cc(-c3ccccc3)nn2)cc1)NCC1CCOCC1 [Example 37, 2-(4-(4-phenyl-1H-1,2,3-triazol-1-yl)phenoxy)-N-((tetrahydro-2H-pyran-4-yl)methyl)acetamide] | 58 | 78 | 25
26 | COc1cc(-c2ccc(OCC(=O)NCC3CCOCC3)cc2)nn1Cc1ccc(C(F)(F)F)cc1 [Example 38, 2-(4-(5-methoxy-1-(4-(trifluoromethyl)benzyl)-1H-pyrazol-3-yl)phenoxy)-N-((tetrahydro-2H-pyran-4-yl)methyl)acetamide] | 39 | 59 | 27
27 | Cc1nc(-c2ccc(OCC(=O)NCC3CCOCC3)cc2)oc1C [Example 39, 2-(4-(4,5-dimethyloxazol-2-yl)phenoxy)-N-((tetrahydro-2H-pyran-4-yl)methyl)acetamide] | 9 | 15 | –
